The structures appear in SMILES notation. Where a name gives a salt, the structure may show the parent alone.

We go through twelve compounds from patent US20250179066A1, “ZWITTERIONIC ANTIBACTERIAL COMPOUNDS” (Hoffmann-La Roche Inc., priority 2022, published 2025).

This assay deals with Acinetobacter baumannii ATCC17961. As to the kind of experiment: Antimicrobial susceptibility testing: 90% growth inhibitory concentration (IC90) determination. The class given is cell-based. The following applies: Acinetobacter baumannii, ATCC17961, 16 h, 90% growth inhibitory concentration against Acinetobacter baumannii ATCC17961, Iso-Sensitest broth, OD 600 nm over 16 h; read-out: ATCC 17961 IC90. The method in brief:
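OD600 monitored each minute over 16 h at 35±2° C for bacteria (~5×10^5 CFU/mL final) in Iso-Sensitest medium with 10-point twofold compound series (e.g. 10-0.0195 μM final). Concentration giving 90% growth inhibition in log phase reported as IC90.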
Consider `Cn1c(-c2cn(-c3ccc4c(ccn4C)n3)nc2C(F)(F)F)cnc1C(=O)Nc1ccc(C(=O)N2CCN(C(=O)[C@H]3CC[N@+](CC(=O)O)(CC4CNC4)CC3)CC2)c(Cl)c1` [Example 39, cis-2-[1-(azetidin-3-ylmethyl)-4-[4-[2-chloro-4-[[1-methyl-5-[1-(1-methylpyrrolo[3,2-b]pyridin-5-yl)-3-(trifluoromethyl)pyrazol-4-yl]imidazole-2-carbonyl]amino]benzoyl]piperazine-1-carbonyl]piperidin-1-ium-1-yl]acetic acid. 1:1 2,2,2-trifluoroacetate], for which the IC90 (in general, the concentration needed for an effect of 90%) stood at 430 nM.

As to `CC(C)Nc1ccc(-n2cc(-c3cnc(C(=O)Nc4ccc(C(=O)N5CCN(C(=O)C6CC[N+](CC(=O)O)(CC7CNC7)CC6)CC5)c(Cl)c4)n3C)c(C(F)(F)F)n2)nc1` (stereo not drawn) [Example 40, 2-[1-(azetidin-3-ylmethyl)-4-[4-[2-chloro-4-[[5-[1-[5-(isopropylamino)-2-pyridyl]-3-(trifluoromethyl)pyrazol-4-yl]-1-methyl-imidazole-2-carbonyl]amino]benzoyl]piperazine-1-carbonyl]piperidin-1-ium-1-yl]acetic acid. 1:1 formate], the IC90 stood at 430 nM.

Turning to `Cn1c(-c2cn(-c3ccc(Nc4ccccn4)cn3)nc2C(F)(F)F)cnc1C(=O)Nc1ccc(C(=O)N2CCN(C(=O)C3CC[N+](CC(=O)O)(CC4CNC4)CC3)CC2)c(Cl)c1` (stereo not drawn) [Example 41, 2-[1-(azetidin-3-ylmethyl)-4-[4-[2-chloro-4-[[1-methyl-5-[1-[5-(2-pyridylamino)-2-pyridyl]-3-(trifluoromethyl)pyrazol-4-yl]imidazole-2-carbonyl]amino]benzoyl]piperazine-1-carbonyl]piperidin-1-ium-1-yl]acetic acid. 1:1 formate], the IC90 is 440 nM.

Regarding `Cn1c(-c2cn(-c3ccc4[nH]ncc4n3)nc2C(F)(F)F)cnc1C(=O)Nc1ccc(C(=O)N2CCN(C(=O)[C@H]3CC[N@+](CC(=O)O)(CC4CNC4)CC3)CC2)c(Cl)c1` [Example 42, cis-2-[1-(azetidin-3-ylmethyl)-4-[4-[2-chloro-4-[[1-methyl-5-[1-(1H-pyrazolo[4,3-b]pyridin-5-yl)-3-(trifluoromethyl)pyrazol-4-yl]imidazole-2-carbonyl]amino]benzoyl]piperazine-1-carbonyl]piperidin-1-ium-1-yl]acetic acid. 1:1 2,2,2-trifluoroacetate], the IC90 was determined as 440 nM.

In the case of `Cn1c(-c2cn(-c3nccs3)nc2C(F)(F)F)cnc1C(=O)Nc1ccc(C(=O)N2CCN(C(=O)C3CC[N+](CC(=O)O)(CC4CNC4)CC3)CC2)c(Cl)c1` (stereo not drawn) [Example 43, 2-[1-(azetidin-3-ylmethyl)-4-[4-[2-chloro-4-[[1-methyl-5-[1-thiazol-2-yl-3-(trifluoromethyl)pyrazol-4-yl]imidazole-2-carbonyl]amino]benzoyl]piperazine-1-carbonyl]piperidin-1-ium-1-yl]acetic acid. 1:1 formate], the IC90 worked out at 460 nM.

As to `Cn1c(-c2cn(-c3ccc(NC4CC4)cn3)nc2C(F)(F)F)cnc1C(=O)Nc1ccc(C(=O)N2CCN(C(=O)C3CC[N+](CC(=O)O)(CC4CNC4)CC3)CC2)c(Cl)c1` (stereo not drawn) [Example 44, 2-[1-(azetidin-3-ylmethyl)-4-[4-[2-chloro-4-[[5-[1-[5-(cyclopropylamino)-2-pyridyl]-3-(trifluoromethyl)pyrazol-4-yl]-1-methyl-imidazole-2-carbonyl]amino]benzoyl]piperazine-1-carbonyl]piperidin-1-ium-1-yl]acetic acid. 1:1 formate], the IC90 was 490 nM.

Consider `CN(C)c1ccc(-n2cc(-c3cnc(C(=O)Nc4ccc(C(=O)N5CCN(C(=O)C6CC[N+](CC(=O)O)(CC7CNC7)CC6)CC5)c(Cl)c4)n3C)c(C(F)(F)F)n2)nc1` (stereo not drawn) [Example 45, 2-[1-(azetidin-3-ylmethyl)-4-[4-[2-chloro-4-[[5-[1-[5-(dimethylamino)-2-pyridyl]-3-(trifluoromethyl)pyrazol-4-yl]-1-methyl-imidazole-2-carbonyl]amino]benzoyl]piperazine-1-carbonyl]piperidin-1-ium-1-yl]acetic acid. 1:1 formate], for which the IC90 was determined as 500 nM.

With `CN(C)c1ccc(-n2cc(-c3cnc(C(=O)Nc4ccc(C(=O)N5CCN(C(=O)C6CC[N+](CC(=O)O)(CC7CNC7)CC6)CC5)c(Cl)c4)n3C)c(C(F)(F)F)n2)cc1` (stereo not drawn) [Example 46, 2-[1-(azetidin-3-ylmethyl)-4-[4-[2-chloro-4-[[5-[1-[4-(dimethylamino)phenyl]-3-(trifluoromethyl)pyrazol-4-yl]-1-methyl-imidazole-2-carbonyl]amino]benzoyl]piperazine-1-carbonyl]piperidin-1-ium-1-yl]acetic acid. 1:1 formate], the IC90 is 500 nM.

Regarding `Cn1c(-c2cn(-c3ccc(NC[C@H]4COCCN4)cn3)nc2C(F)(F)F)cnc1C(=O)Nc1ccc(C(=O)N2CCN(C(=O)C3CC[N+](CC(=O)O)(CC4CNC4)CC3)CC2)c(Cl)c1` (stereo partly drawn) [Example 47, 2-[1-(azetidin-3-ylmethyl)-4-[4-[2-chloro-4-[[1-methyl-5-[1-[5-[[(3S)-morpholin-3-yl]methylamino]-2-pyridyl]-3-(trifluoromethyl)pyrazol-4-yl]imidazole-2-carbonyl]amino]benzoyl]piperazine-1-carbonyl]piperidin-1-ium-1-yl]acetic acid. 1:1 2,2,2-trifluoroacetic acid. 1:1 2,2,2-trifluoroacetate], the IC90 stood at 500 nM.

Turning to `Cn1c(-c2cn(-c3ccc(N)cn3)nc2C(F)(F)F)cnc1C(=O)Nc1ccc(C(=O)N2CCN(C(=O)[C@H]3CC[N@+](CCCN)(CC(=O)O)CC3)CC2)c(Cl)c1` [Example 48, trans-2-[1-(3-aminopropyl)-4-[4-[4-[[5-[1-(5-amino-2-pyridyl)-3-(trifluoromethyl)pyrazol-4-yl]-1-methyl-imidazole-2-carbonyl]amino]-2-chloro-benzoyl]piperazine-1-carbonyl]piperidin-1-ium-1-yl]acetic acid. 1:1 2,2,2-trifluoroacetate], the IC90 was 510 nM.

In the case of `CN(C)c1ccc(-n2cc(-c3cnc(C(=O)Nc4ccc(C(=O)N5CCN(C(=O)C6CC[N+](CC(=O)O)(CC7CNC7)CC6)CC5)c(Cl)c4)n3C)c(C(F)(F)F)n2)cn1` (stereo not drawn) [Example 49, 2-[1-(azetidin-3-ylmethyl)-4-[4-[2-chloro-4-[[5-[1-[6-(dimethylamino)-3-pyridyl]-3-(trifluoromethyl)pyrazol-4-yl]-1-methyl-imidazole-2-carbonyl]amino]benzoyl]piperazine-1-carbonyl]piperidin-1-ium-1-yl]acetic acid. 1:1 2,2,2-trifluoroacetate], the IC90 worked out at 520 nM.

For the compound `Cn1c(-c2cn(-c3ccc(N)cn3)nc2C(F)(F)F)cnc1C(=O)Nc1ccc(C(=O)N2CCN(C(=O)CCC[N+](CC(=O)O)(CC3CNC3)CC3CNC3)CC2)c(Cl)c1` [Example 50, [4-[4-[4-[[5-[1-(5-amino-2-pyridyl)-3-(trifluoromethyl)pyrazol-4-yl]-1-methyl-imidazole-2-carbonyl]amino]-2-chloro-benzoyl]piperazino]-4-keto-butyl]-bis(azetidin-3-ylmethyl)-(carboxymethyl)ammonium. 1:1 2,2,2-trifluoroacetic acid. 1:1 2,2,2-trifluoroacetate], the IC90 amounted to 520 nM.
